The values below are quoted from earlier work in patent US7217837B2, “Method for producing organic acid” (Mitsubishi Chemical Corporation, priority 2002, dated 2007).

The structures appear in SMILES notation.

The conditions of data set [1]: Table 1; literature values.
The conditions of data set [2]: Table 1; for pKa1: literature values (Pyne Organic Chemistry; Handbook of Chemistry and Physics); for pKa2: literature values.
For data set [3] the following is noted: water, Table 1, literature values.

Regarding `CC(C)[C@H](N)C(=O)O` [Valine], the “Isoelectric point pI” value in data set [1] is given as 6. Also, the pKa1 in data set [2] was 2.29. Further, the “Solubility at 25° C.” value in data set [3] is on record as 8.85 g/100 gH2O.
With `N[C@@H](Cc1c[nH]c2ccccc12)C(=O)O` [Tryptophan], in data set [1], the “Isoelectric point pI” value was 5.88. Besides, in data set [2], the pKa1 was 2.38. Also, the “Solubility at 25° C.” value in data set [3] is recorded as 1.14 g/100 gH2O.
With `CC(C)C[C@H](N)C(=O)O` [Leucine], in data set [3], the “Solubility at 25° C.” value is given as 2.19 g/100 gH2O.
In the case of `N[C@@H](Cc1ccccc1)C(=O)O` [Phenylalanine], the “Isoelectric point pI” value in data set [1] is recorded as 5.91. In addition, in data set [2], the pKa1 is recorded as 2.58. Moreover, the “Solubility at 25° C.” value in data set [3] is recorded as 2.965 g/100 gH2O.
Take `O=C(O)CCCC(=O)O` [Glutaric acid]: in data set [2], the pKa2 is recorded as 5.41 and the pKa1 was 4.31.
For `N[C@@H](CCC(=O)O)C(=O)O` [Glutamic acid], in data set [1], the “Isoelectric point pI” value is reported as 3.08.
Regarding `NC(=O)CC[C@H](N)C(=O)O` [Glutamine], the “Solubility at 25° C.” value in data set [3] is recorded as 3.6 g/100 gH2O.
Turning to `N[C@@H](Cc1c[nH]cn1)C(=O)O` [Histidine], in data set [1], the “Isoelectric point pI” value was 7.64. The “Solubility at 25° C.” value in data set [3] is listed as 4.29 g/100 gH2O.
In the case of `N[C@@H](CC(=O)O)C(=O)O` [Aspartic acid], the “Isoelectric point pI” value in data set [1] is given as 2.98.
`O=C(O)CCCCCCC(=O)O` [Suberic acid]: the pKa1 in data set [2] is listed as 4.52.
On to `CC[C@H](C)[C@H](N)C(=O)O` [Isoleucine], for which the “Isoelectric point pI” value in data set [1] is on record as 6.04. Besides, in data set [2], the pKa1 is given as 2.32. For the same compound, the “Solubility at 25° C.” value in data set [3] is 4.117 g/100 gH2O.
`O=C(O)CC(O)C(=O)O` (stereo not drawn) [Malic acid]: in data set [2], the pKa2 was 5.11 and the pKa1 is listed as 3.40.
For `N[C@@H](Cc1ccc(O)cc1)C(=O)O` [Tyrosine], in data set [1], the “Isoelectric point pI” value is reported as 5.66.
For `CSCC[C@H](N)C(=O)O` [Methionine], the “Isoelectric point pI” value in data set [1] is 5.74. Also, the pKa1 in data set [2] is 2.28. Further, the “Solubility at 25° C.” value in data set [3] is 3.35 g/100 gH2O.
As to `NC(=O)C[C@H](N)C(=O)O` [Asparagine], the “Isoelectric point pI” value in data set [1] is 5.41. In data set [2], the pKa1 is on record as 2.02. Further, the “Solubility at 25° C.” value in data set [3] is reported as 3.11 g/100 gH2O.
